Experimental data taken from PubChem BioAssay (NCI).
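Five compound concentrations were applied to cells in 96-well plates for 48 hours; endpoints were derived by simple linear interpolation of the resulting dose-response curve. Here, GI50 denotes the concentration required for 50% inhibition of growth. At the TGI there is no net growth.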

Tests used:
Experiment in all cases: NCI tumour cell line growth inhibition, 48 h
786-0 renal = tested on: 786-0 renal
A498 renal = tested on: A498 renal
A549 NSCLC = tested on: A549 NSCLC
ACHN renal = tested on: ACHN renal
BT-549 breast = tested on: BT-549 breast
CAKI-1 renal = tested on: CAKI-1 renal
CCRF-CEM leukemia = tested on: CCRF-CEM leukemia
COLO 205 colon = tested on: COLO 205 colon
DU-145 prostate = tested on: DU-145 prostate
EKVX NSCLC = tested on: EKVX NSCLC
HCC-2998 colon = tested on: HCC-2998 colon
HCT-116 colon = tested on: HCT-116 colon
HCT-15 colon = tested on: HCT-15 colon
HL-60(TB) leukemia = tested on: HL-60(TB) leukemia
HOP-62 NSCLC = tested on: HOP-62 NSCLC
HOP-92 NSCLC = tested on: HOP-92 NSCLC
HS 578T breast = tested on: HS 578T breast
HT29 colon = tested on: HT29 colon
IGROV1 ovarian = tested on: IGROV1 ovarian
K-562 leukemia = tested on: K-562 leukemia
KM12 colon = tested on: KM12 colon
LOX IMVI melanoma = tested on: LOX IMVI melanoma
M14 melanoma = tested on: M14 melanoma
MALME-3M melanoma = tested on: MALME-3M melanoma
MCF7 breast = tested on: MCF7 breast
MDA-MB-231 breast = tested on: MDA-MB-231 breast
MDA-MB-435 = tested on: MDA-MB-435
MOLT-4 leukemia = tested on: MOLT-4 leukemia
NCI-H226 lung = tested on: NCI-H226 lung
NCI-H23 lung = tested on: NCI-H23 lung
NCI-H460 lung = tested on: NCI-H460 lung
NCI-H522 lung = tested on: NCI-H522 lung
NCI/ADR-RES ovarian = tested on: NCI/ADR-RES ovarian
OVCAR-4 ovarian = tested on: OVCAR-4 ovarian
OVCAR-5 ovarian = tested on: OVCAR-5 ovarian
OVCAR-8 ovarian = tested on: OVCAR-8 ovarian
PC-3 prostate = tested on: PC-3 prostate
RPMI-8226 leukemia = tested on: RPMI-8226 leukemia
RXF 393 renal = tested on: RXF 393 renal
SF-268 CNS = tested on: SF-268 CNS
SF-295 CNS = tested on: SF-295 CNS
SF-539 CNS = tested on: SF-539 CNS
SK-MEL-2 melanoma = tested on: SK-MEL-2 melanoma
SK-MEL-28 melanoma = tested on: SK-MEL-28 melanoma
SK-MEL-5 melanoma = tested on: SK-MEL-5 melanoma
SK-OV-3 ovarian = tested on: SK-OV-3 ovarian
SN12C renal = tested on: SN12C renal
SNB-19 CNS = tested on: SNB-19 CNS
SNB-75 CNS = tested on: SNB-75 CNS
SR leukemia = tested on: SR leukemia
SW-620 colon = tested on: SW-620 colon
T-47D breast = tested on: T-47D breast
TK-10 renal = tested on: TK-10 renal
U251 CNS = tested on: U251 CNS
UACC-257 melanoma = tested on: UACC-257 melanoma
UACC-62 melanoma = tested on: UACC-62 melanoma
UO-31 renal = tested on: UO-31 renal

Oc1cccc2ccc(-c3nnc(SCc4ccc(O)c5ncccc45)n3-c3ccccc3)nc12
GI50 (786-0 renal): 759 nM
TGI (786-0 renal): 11700 nM
GI50 (A498 renal): 1810 nM
TGI (A498 renal): > 31000 nM
GI50 (A549 NSCLC): 651 nM
TGI (A549 NSCLC): > 35800 nM
GI50 (ACHN renal): 419 nM
TGI (ACHN renal): 2440 nM
GI50 (BT-549 breast): 419 nM
TGI (BT-549 breast): > 21700 nM
GI50 (CAKI-1 renal): 518 nM
TGI (CAKI-1 renal): 7250 nM
GI50 (CCRF-CEM leukemia): 411 nM
TGI (CCRF-CEM leukemia): > 63700 nM
GI50 (COLO 205 colon): 4360 nM
TGI (COLO 205 colon): > 100000 nM
GI50 (DU-145 prostate): 580 nM
TGI (DU-145 prostate): > 100000 nM
GI50 (EKVX NSCLC): 788 nM
TGI (EKVX NSCLC): > 26400 nM
GI50 (HCC-2998 colon): 612 nM
TGI (HCC-2998 colon): > 100000 nM
GI50 (HCT-116 colon): 324 nM
TGI (HCT-116 colon): 9380 nM
GI50 (HCT-15 colon): 323 nM
TGI (HCT-15 colon): > 37100 nM
GI50 (HL-60(TB) leukemia): 369 nM
GI50 (HOP-62 NSCLC): 519 nM
TGI (HOP-62 NSCLC): 6840 nM
GI50 (HOP-92 NSCLC): 257 nM
TGI (HOP-92 NSCLC): 940 nM
GI50 (HS 578T breast): 398 nM
TGI (HS 578T breast): 6240 nM
GI50 (HT29 colon): 7400 nM
TGI (HT29 colon): > 100000 nM
GI50 (IGROV1 ovarian): 735 nM
TGI (IGROV1 ovarian): 11500 nM
GI50 (K-562 leukemia): 339 nM
TGI (K-562 leukemia): > 100000 nM
GI50 (KM12 colon): 507 nM
TGI (KM12 colon): > 100000 nM
GI50 (LOX IMVI melanoma): 556 nM
TGI (LOX IMVI melanoma): 7940 nM
GI50 (M14 melanoma): 476 nM
TGI (M14 melanoma): 3500 nM
GI50 (MALME-3M melanoma): 599 nM
TGI (MALME-3M melanoma): 5000 nM
GI50 (MCF7 breast): 325 nM
TGI (MCF7 breast): > 35300 nM
GI50 (MDA-MB-231 breast): 996 nM
TGI (MDA-MB-231 breast): 16200 nM
GI50 (MDA-MB-435): 441 nM
TGI (MDA-MB-435): > 73800 nM
GI50 (MOLT-4 leukemia): 459 nM
TGI (MOLT-4 leukemia): > 47400 nM
GI50 (NCI-H226 lung): 3040 nM
TGI (NCI-H226 lung): > 50800 nM
GI50 (NCI-H23 lung): 533 nM
TGI (NCI-H23 lung): > 33500 nM
GI50 (NCI-H460 lung): 311 nM
TGI (NCI-H460 lung): 1560 nM
GI50 (NCI-H522 lung): 456 nM
TGI (NCI-H522 lung): 11900 nM
GI50 (NCI/ADR-RES ovarian): 356 nM
TGI (NCI/ADR-RES ovarian): 6330 nM
GI50 (OVCAR-4 ovarian): 672 nM
TGI (OVCAR-4 ovarian): 9210 nM
GI50 (OVCAR-5 ovarian): 3430 nM
TGI (OVCAR-5 ovarian): > 81100 nM
GI50 (OVCAR-8 ovarian): 408 nM
TGI (OVCAR-8 ovarian): 11900 nM
GI50 (PC-3 prostate): 391 nM
TGI (PC-3 prostate): > 37800 nM
GI50 (RPMI-8226 leukemia): 437 nM
TGI (RPMI-8226 leukemia): > 100000 nM
GI50 (RXF 393 renal): 744 nM
TGI (RXF 393 renal): 19100 nM
GI50 (SF-268 CNS): 471 nM
TGI (SF-268 CNS): > 73900 nM
GI50 (SF-295 CNS): 460 nM
TGI (SF-295 CNS): 11900 nM
GI50 (SF-539 CNS): 430 nM
TGI (SF-539 CNS): 3410 nM
GI50 (SK-MEL-2 melanoma): 540 nM
TGI (SK-MEL-2 melanoma): 5710 nM
GI50 (SK-MEL-28 melanoma): 533 nM
TGI (SK-MEL-28 melanoma): > 100000 nM
GI50 (SK-MEL-5 melanoma): 579 nM
GI50 (SK-OV-3 ovarian): 529 nM
TGI (SK-OV-3 ovarian): 4890 nM
GI50 (SN12C renal): 448 nM
TGI (SN12C renal): 18300 nM
GI50 (SNB-19 CNS): 425 nM
TGI (SNB-19 CNS): > 44100 nM
GI50 (SNB-75 CNS): 279 nM
TGI (SNB-75 CNS): 4420 nM
GI50 (SR leukemia): 385 nM
TGI (SR leukemia): > 50800 nM
GI50 (SW-620 colon): 403 nM
TGI (SW-620 colon): > 35700 nM
GI50 (T-47D breast): 380 nM
TGI (T-47D breast): 2570 nM
GI50 (TK-10 renal): 428 nM
TGI (TK-10 renal): 7280 nM
GI50 (U251 CNS): 293 nM
TGI (U251 CNS): 7600 nM
GI50 (UACC-257 melanoma): 708 nM
TGI (UACC-257 melanoma): 6620 nM
GI50 (UACC-62 melanoma): 1060 nM
TGI (UACC-62 melanoma): 5080 nM
GI50 (UO-31 renal): 297 nM
TGI (UO-31 renal): 1570 nM
